Data: patent US20240261398A1 (priority 2018, published 2024)
Several values for one entry are separate records, joined by “and”; a condition that tells them apart may be missing. Equal entries are not always repeated.

Columns and labels:
[1] = test system: MA-CA04 virus; design: species or system mice; conditions: mouse, in vivo
[2] = test system: MA-CA04 virus; design: species or system BALB/c mice; conditions: mouse, in vivo

O.O=P([O-])([O-])OCC(O)CO.[Ca+2] (stereo not shown)
Survival rate (%) [1]: 75%
influence on body weight (FIG. 3 A and C) [1]: the same level as the previously known adjuvant Poly(I:C)
survival rate (FIG. 3 B and D) [1]: the same level as Poly(I:C) or was slightly lower than Poly(I:C)

CC(/C=C/C=C(C)/C=C/C(=O)O)=C\C=C\C=C(C)\C=C\C=C(C)\C=C\C(=O)O (stereo in doubt) [Norbixin]
Survival rate (%) [1]: 50%
Mean value of antibody titers (Log 10 PFU/g) ± Standard deviation, Lung, 3 days after infection [2]: 7.2 ± 0.3 Log 10 PFU/g and 7.4 ± 0.3 Log 10 PFU/g

CC(/C=C/C=C(\C)C(=O)O[C@@H]1O[C@H](CO[C@@H]2O[C@H](CO)[C@@H](O)[C@H](O)[C@H]2O)[C@@H](O)[C@H](O)[C@H]1O)=C\C=C\C=C(C)\C=C\C=C(/C)C(=O)O[C@@H]1O[C@H](CO[C@@H]2O[C@H](CO)[C@@H](O)[C@H](O)[C@H]2O)[C@@H](O)[C@H](O)[C@H]1O [Crocin]
Survival rate (%) [1]: 50%

COC(=O)[C@H](Cc1ccccc1)NC(=O)[C@H](CC(=O)O)NCCC(C)(C)C [Neotame]
Mean value of antibody titers (Log 10 PFU/g) ± Standard deviation, Lung, 3 days after infection [2]: 7.5 ± 0.3 Log 10 PFU/g and 7.5 ± 0.2 Log 10 PFU/g
Mean value of antibody titers (Log 10 PFU/g) ± Standard deviation, Nasal concha, 3 days after infection [2]: 6.1 ± 0.05 Log 10 PFU/g and 6.3 ± 0.1 Log 10 PFU/g
virus titers in the nasal concha and the lung, six days after the infection [2]: no virus titers were detected in some mice

Cc1cc2nc3c(=O)[nH]c(=O)nc-3n(C[C@H](O)[C@H](O)[C@H](O)CO)c2cc1C [Riboflavin]
Survival rate (%) [1]: 25%

C[C@@H]1O[C@@H](OC[C@H]2O[C@@H](Oc3c(-c4ccc(O)c(O)c4)oc4cc(O)cc(O)c4c3=O)[C@H](O)[C@@H](O)[C@@H]2O)[C@H](O)[C@H](O)[C@H]1O [Rutin hydrate]
Survival rate (%) [1]: 75%

O=C([O-])c1ccccc1.[Na+] [Sodium benzoate]
Mean value of antibody titers (Log 10 PFU/g) ± Standard deviation, Lung, 3 days after infection [2]: 6.7 ± 0.2 Log 10 PFU/g and 7.0 ± 0.2 Log 10 PFU/g
Mean value of antibody titers (Log 10 PFU/g) ± Standard deviation, Nasal concha, 3 days after infection [2]: 6.4 ± 0.1 Log 10 PFU/g and 6.2 ± 0.04 Log 10 PFU/g
virus titers in the nasal concha and the lung, six days after the infection [2]: no virus titers were detected in some mice

O=S([O-])[O-].[Na+].[Na+] [Sodium sulfite]
Mean value of antibody titers (Log 10 PFU/g) ± Standard deviation, Lung, 3 days after infection [2]: 7.0 ± 0.1 Log 10 PFU/g
Mean value of antibody titers (Log 10 PFU/g) ± Standard deviation, Nasal concha, 3 days after infection [2]: 6.1 ± 0.3 Log 10 PFU/g and 6.2 ± 0.2 Log 10 PFU/g
